One block for each molecule: values may come before it.
Key:
[1] = biological target: T1, N-lysine methyltransferase SMYD2 (Homo sapiens, UniProt Q9NRG4); experiment: Inhibition of FLAG-tagged SMYD2 (unknown origin) expressed in human U2OS cells mediated intracellular p53 methylation incubated for 24 hrs using p53 as substrate by immunofluorescence analysis; format: cell-based
[2] = system: KYSE-150 cell line; experiment: Antitumor activity against human KYSE-150 cells assessed as inhibition of cell proliferation incubated for 3 to 7 days by CellTiter-Glo assay; format: functional, cell-based
[3] = system: KYSE-270; experiment: Antitumor activity against human KYSE-270 cells assessed as inhibition of cell proliferation incubated for 3 to 7 days by CellTiter-Glo assay; format: functional, cell-based
[4] = Antitumor activity against human BC cells assessed as inhibition of cell proliferation incubated for 3 to 7 days by CellTiter-Glo assay; format: functional, cell-based
[5] = Antitumor activity against human HCC cells assessed as inhibition of cell proliferation incubated for 3 to 7 days by CellTiter-Glo assay; format: functional, cell-based
[6] = biological target: T1, N-lysine methyltransferase SMYD2; experiment: Inhibition of human SMYD2 overexpressing human KYSE-150 cells assessed as SMYD2 assessed as reduction in BTF3 monomethylation by Western blot analysis; format: cell-based, KYSE-150 cell line

T1 sequence (Q9NRG4 whole entry): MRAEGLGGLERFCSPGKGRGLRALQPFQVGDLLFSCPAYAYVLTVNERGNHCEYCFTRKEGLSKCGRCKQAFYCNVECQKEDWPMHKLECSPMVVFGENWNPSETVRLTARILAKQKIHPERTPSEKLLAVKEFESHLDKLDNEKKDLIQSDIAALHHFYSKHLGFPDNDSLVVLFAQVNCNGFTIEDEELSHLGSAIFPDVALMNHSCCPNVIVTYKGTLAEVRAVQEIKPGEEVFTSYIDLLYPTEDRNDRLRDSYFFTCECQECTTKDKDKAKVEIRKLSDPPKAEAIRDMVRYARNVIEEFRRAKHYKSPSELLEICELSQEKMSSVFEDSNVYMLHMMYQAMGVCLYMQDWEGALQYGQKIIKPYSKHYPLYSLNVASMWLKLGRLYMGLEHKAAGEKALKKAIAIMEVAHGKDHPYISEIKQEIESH

IC50 [1]: < 100000 nM
Structure (SMILES): O=C1COc2c(CCNCCN(C(=O)CCNCCc3ccc(Cl)c(Cl)c3)C3CCCCC3)ccc(O)c2N1

Structure (SMILES): Cc1cn(CCN2CCN(c3ccccc3-c3cc(C#N)cc(C(=O)NCCCN4CCCC4)c3)CC2)c2ccccc12
IC50 [2]: 1500 nM | IC50 [3]: 1500 nM | IC50 [4]: 1500 nM | IC50 [5]: 1500 nM

IC50 [6]: 2.9 nM
Structure (SMILES): O=C(NC1CN(Cc2cnn(Cc3ccc(Cl)cc3)c2)C1)c1cn(C2CC2)nn1
